Measurements reported in patent US10703756B2, “Pyrrolo[2,3-D]pyrimidinyl, pyrrolo[2,3-B]pyrazinyl, pyrrolo[2,3-B]pyridinyl acrylamides and epoxides thereof” (Pfizer Inc., priority 2015, dated 2020).

Experiments:
JAK3 enzyme [1] = target: T1, JAK3 enzyme (Homo sapiens, UniProt P52333); test: JAK Caliper Enzyme Assay at 4 μM ATP; assay type: biochemical
T1 sequence (P52333 1-1124): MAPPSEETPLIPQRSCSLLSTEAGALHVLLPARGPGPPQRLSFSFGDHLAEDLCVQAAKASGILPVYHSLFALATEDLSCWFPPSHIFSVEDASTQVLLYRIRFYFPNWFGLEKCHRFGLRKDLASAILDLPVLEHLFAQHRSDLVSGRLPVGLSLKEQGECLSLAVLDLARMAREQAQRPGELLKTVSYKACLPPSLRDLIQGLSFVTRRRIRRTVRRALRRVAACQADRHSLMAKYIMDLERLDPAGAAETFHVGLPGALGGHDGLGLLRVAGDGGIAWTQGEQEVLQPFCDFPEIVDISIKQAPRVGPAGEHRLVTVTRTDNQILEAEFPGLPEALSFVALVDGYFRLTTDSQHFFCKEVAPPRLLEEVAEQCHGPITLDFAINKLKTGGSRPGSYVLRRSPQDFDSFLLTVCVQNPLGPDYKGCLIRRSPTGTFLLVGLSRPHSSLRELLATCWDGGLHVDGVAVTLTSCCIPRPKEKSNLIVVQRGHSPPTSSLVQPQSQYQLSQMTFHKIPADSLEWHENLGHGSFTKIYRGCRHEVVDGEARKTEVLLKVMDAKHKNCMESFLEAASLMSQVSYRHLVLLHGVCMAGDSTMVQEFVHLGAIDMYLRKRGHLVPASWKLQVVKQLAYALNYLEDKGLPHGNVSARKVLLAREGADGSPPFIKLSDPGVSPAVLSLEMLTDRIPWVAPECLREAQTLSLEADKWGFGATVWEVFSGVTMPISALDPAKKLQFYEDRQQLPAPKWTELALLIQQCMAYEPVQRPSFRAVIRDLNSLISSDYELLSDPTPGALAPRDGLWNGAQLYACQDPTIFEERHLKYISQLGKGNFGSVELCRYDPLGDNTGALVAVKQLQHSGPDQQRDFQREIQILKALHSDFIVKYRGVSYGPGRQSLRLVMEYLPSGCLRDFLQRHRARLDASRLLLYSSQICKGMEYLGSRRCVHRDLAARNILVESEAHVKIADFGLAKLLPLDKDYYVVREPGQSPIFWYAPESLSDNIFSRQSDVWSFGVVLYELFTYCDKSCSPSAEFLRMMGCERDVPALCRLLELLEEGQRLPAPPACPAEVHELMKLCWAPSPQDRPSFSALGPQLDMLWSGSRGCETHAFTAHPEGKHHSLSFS
Experimental: (§1) Test article was solubilized in dimethyl sulfoxide (DMSO) to a stock concentration of 30 mM. An 11-point half log dilution series was created in DMSO with a top concentration of 600 μM. […] Test article and assay controls were added to a 384-well plate. […] Enzyme concentrations and incubation times were optimized for each new enzyme preps and were modified slightly over time to ensure 20%-30% phosphorylation. […] The assay plates were placed on a Caliper Life Science Lab Chip 3000 (LC3000) instrument, and each well was sampled using appropriate separation conditions to measure the unphosphorylated and phosphorylated peptide.

JAK3 enzyme [2] = target: T1, JAK3 enzyme; test: JAK Caliper Enzyme Assay at 1 mM ATP; assay type: biochemical
Experimental: as §1

Compound | IC50 (JAK3 enzyme [1]) [nM] | IC50 (JAK3 enzyme [2]) [nM]
C=CC(=O)N1CCC(Oc2cnc3[nH]cc(C#N)c3n2)CC1 [Example 114, 2-[(1-Acryloylpiperidin-4-yl)oxy]-5H-pyrrolo[2,3-b]pyrazine-7-carbonitrile] | 19.7 | 3810
C=CC(=O)N1CCC(Oc2cnc3[nH]cc(-c4n[nH]c(C(C)C)n4)c3n2)CC1 [Example 116, 1-[4-({7-[5-(Propan-2-yl)-1H-1,2,4-triazol-3-yl]-5H-pyrrolo[2,3-b]pyrazin-2-yl}oxy)piperidin-1-yl]prop-2-en-1-one] | 14.7 | 2550
C=CC(=O)N1CCC(Oc2cnc3[nH]cc(-c4ncn(C)n4)c3n2)CC1 [Example 126, 1-(4-{[7-(1-Methyl-1H-1,2,4-triazol-3-yl)-5H-pyrrolo[2,3-b]pyrazin-2-yl]oxy}piperidin-1-yl)prop-2-en-1-one] | 14.9 | 3530
C=CC(=O)N1CCN(c2cnc3[nH]cc(C(=O)N[C@H](CO)C(CC)CC)c3n2)CC1(C)C [Example 137, 2-(4-acryloyl-3,3-dimethylpiperazin-1-yl)-N-[(2S)-3-ethyl-1-hydroxypentan-2-yl]-5H-pyrrolo[2,3-b]pyrazine-7-carboxamide] | 28.1 | 3020
C=CC(=O)N1CCN(c2cnc3[nH]cc(C(=O)N[C@@H](COC)c4ccccc4)c3n2)CC1(C)C [Example 138, 2-(4-acryloyl-3,3-dimethylpiperazin-1-yl)-N-[(1R)-2-methoxy-1-phenylethyl]-5H-pyrrolo[2,3-b]pyrazine-7-carboxamide] | 46.7 | 4840
C=CC(=O)N1CCN(c2cnc3[nH]cc(C(=O)N[C@@H]4COC[C@@H]4CC(C)C)c3n2)CC1(C)C [Example 142, 2-(4-acryloyl-3,3-dimethylpiperazin-1-yl)-N-[(3S,4R)-4-(2-methylpropyl)tetrahydrofuran-3-yl]-5H-pyrrolo[2,3-b]pyrazine-7-carboxamide] | 60.4 | 4430
C=CC(=O)N1CCN(c2cnc3[nH]cc(C(=O)N[C@H](CO)[C@@H](C)CC)c3n2)CC1(C)C [Example 145, 2-(4-acryloyl-3,3-dimethylpiperazin-1-yl)-N-[(2S,3S)-1-hydroxy-3-methylpentan-2-yl]-5H-pyrrolo[2,3-b]pyrazine-7-carboxamide] | 18.4 | 1930

Now those with a lower IC50 (JAK3 enzyme [1]), led by results:

IC50 (JAK3 enzyme [1]) [nM] | IC50 (JAK3 enzyme [2]) [nM] | Compound
8.97 | 1470 | C=CC(=O)N1CCC(Oc2cnc3[nH]cc(-c4ncnn4C)c3n2)CC1 [Example 122, 1-(4-{[7-(1-Methyl-1H-1,2,4-triazol-5-yl)-5H-pyrrolo[2,3-b]pyrazin-2-yl}oxy)piperidin-1-yl]prop-2-en-1-one]
7.82 | 1880 | C=CC(=O)N1CCC(Oc2cnc3[nH]cc(-c4ncn(CC)n4)c3n2)CC1 [Example 125, 1-(4-{[7-(1-Ethyl-1H-1,2,4-triazol-3-yl)-5H-pyrrolo[2,3-b]pyrazin-2-yl]oxy}piperidin-1-yl)prop-2-en-1-one]
9.43 | 1080 | C=CC(=O)N1CCC(Nc2cnc3[nH]cc(S(=O)(=O)NC(C)C)c3n2)CC1 [Example 127, 2-[(1-Acryloylpiperidin-4-yl)amino]-N-(propan-2-yl)-5H-pyrrolo[2,3-b]pyrazine-7-sulfonamide]
0.182 | 33 | C#CCOCCc1c[nH]c2ncnc(N[C@@H]3CC[C@H](C)N(C(=O)C=C)C3)c12 [Example 131, 1-[(2S,5R)-2-Methyl-5-({5-[2-(prop-2-yn-1-yloxy)ethyl]-7H-pyrrolo[2,3-d]pyrimidin-4-yl}amino)piperidin-1-yl]prop-2-en-1-one]
12.4 | 2530 | C=CC(=O)N1CCN(c2cnc3[nH]cc(C(=O)N[C@@H](C)COCc4ccccc4)c3n2)CC1(C)C [Example 134, 2-(4-acryloyl-3,3-dimethylpiperazin-1-yl)-N-[(2S)-1-(benzyloxy)propan-2-yl]-5H-pyrrolo[2,3-b]pyrazine-7-carboxamide]
